Key:
[1] = molecular target: T1, sialidase activity associated with TLR ligand treated live BMC-2 macrophage cells (Mus musculus, UniProt O35657); details: 1-2 mM, compared to LPS positive control; cited from earlier work
T1 construct: endogenous in cells; host or cells: BMC-2 macrophage cells

[2] = molecular target: T2, Neu1 sialidase (Mus musculus, UniProt O35657); assay: LPS-induced Neu1 sialidase activity in live BMA macrophage cells (4-MUNANA); assay type: cell-based; parameters: endogenous in cells; host or cells: BMA macrophage cells
Method: TLR-expressing BMA macrophage cells were grown on 12 mm circular glass slides in culture media containing DMEM supplemented with 10% fetal calf serum. […] Fluorescent images were taken after 2-3 minutes using epi-fluorescent microscopy (Zeiss Imager M2, 40× objective).
This recently developed assay was used to detect sialidase activity on the surface of viable cells. […] The inhibitory potency of a series of amide-linked C9 modified DANA (2-deoxy-2,3-dehydro-D-N-acetylneuraminic add) analogues on lipopolysaccharide (LPS)-induced Neu1 sialidase activity was assessed in live BMA macrophage cells.

[3] = molecular target: T2, Neu1 sialidase; details: live BMA macrophage cells; clopidogrel bisulfate 280 and 500 μM pre-treatment; LPS 5 μg/mL; oseltamivir phosphate 400 μM; cited from earlier work
[4] = molecular target: carboxylesterase (Homo sapiens, UniProt P23141); details: cited from earlier work
Chain of carboxylesterase (P23141 18-567): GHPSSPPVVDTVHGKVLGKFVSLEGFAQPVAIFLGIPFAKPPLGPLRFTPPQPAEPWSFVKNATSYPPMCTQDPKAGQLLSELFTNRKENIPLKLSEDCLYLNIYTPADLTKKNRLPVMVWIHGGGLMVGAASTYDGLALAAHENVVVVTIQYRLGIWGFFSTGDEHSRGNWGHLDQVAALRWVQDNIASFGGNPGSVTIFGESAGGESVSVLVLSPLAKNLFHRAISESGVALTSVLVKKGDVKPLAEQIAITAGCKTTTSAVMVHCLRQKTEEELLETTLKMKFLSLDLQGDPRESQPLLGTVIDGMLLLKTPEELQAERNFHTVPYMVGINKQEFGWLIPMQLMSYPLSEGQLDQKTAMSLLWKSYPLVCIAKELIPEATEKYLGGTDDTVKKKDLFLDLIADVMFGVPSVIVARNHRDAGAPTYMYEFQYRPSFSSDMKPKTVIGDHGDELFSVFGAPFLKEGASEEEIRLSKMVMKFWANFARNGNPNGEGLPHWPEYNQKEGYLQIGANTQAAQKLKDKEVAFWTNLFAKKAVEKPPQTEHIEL

[5] = test system: MiaPaCa-2 cells; assay: Cell viability of MiaPaCa-2 pancreatic cancer cells in culture (MTT or WST-1, 72 hrs); assay type: cell-based, human; details: MiaPaCa-2; for Chemo-drug LD50: MTT, 72 hrs
[6] = test system: PANC-1 cells; assay: Cell viability of PANC-1 pancreatic cancer cells in culture (MTT or WST-1, 72 hrs); assay type: cell-based, human; details: PANC-1; for Chemo-drug LD50: MTT, 72 hrs
[7] = test system: BxPC-3 cells; assay: Cell viability of BxPC-3 pancreatic cancer cells in culture (MTT or WST-1, 72 hrs); assay type: cell-based, human; details: BxPC-3; for Chemo-drug LD50: MTT, 72 hrs
[8] = test system: Capan-1 cells; assay: Cell viability of Capan-1 pancreatic metastatic cancer cells in culture (MTT or WST-1, 72 hrs); assay type: cell-based, human; details: Capan-1; for Chemo-drug LD50: WST-1, 72 hrs
Method: CAPAN-1 cells (ATCC® Number: HTB-79™) are human pancreatic cancer cell line with epithelial morphology expressing the 17 beta-estradiol (E2)-binding estrogen receptor and derived from metastatic liver with adenocarcinoma.
(§1) All cells were grown at 37° C. in 5% CO2 in culture media containing Dulbecco's Modified Eagle Medium (DMEM) (Gibco, Rockville, Md.) supplemented with 10% fetal calf serum (FCS) (HyClone, Logan, Utah, USA).
(§2) MTT is a colorimetric assay for measuring the activity of enzymes that reduce MTT or closely related dyes (XTT, MTS, WSTs) to formazan dye, giving a purple color. A main application allows the assessment of the viability (cell counting) and the proliferation of cells (cell culture assays). It can also be used to determine cytotoxicity of potential medicinal agents and toxic materials, since those agents would stimulate or inhibit cell viability and growth. MTT (3-(4,5-Dimethylthiazol-2-yl)-2,5-diphenyltetrazolium bromide, a yellow tetrazole), is reduced to purple formazan in living cells. A solubilization solution (usually either dimethyl sulfoxide, an acidified ethanol solution, or a solution of the detergent sodium dodecyl sulphate in diluted hydrochloric acid) is added to dissolve the insoluble purple formazan product into a coloured solution. The absorbance of this coloured solution can be quantified by measuring at a certain wavelength (usually between 500 and 600 nm) by a spectrophotometer. The absorption maximum is dependent on the solvent employed.
(§3) WST-1 (Roche Applied Sciences, Montreal) is a ready-to-use substrate which measures the metabolic activity of viable cells. The WST-1 assay is nonradioactive and can be performed entirely in a microplate. It is suitable for measuring cell proliferation, cell viability or cytotoxicity. The assay is based on the reduction of WST-1 by viable cells. The reaction produces a soluble formazan salt. The procedure involves: Culturing the cells in a 96-well microplate, then incubating them with WST-1 for approx. 0.5-4 h. During this incubation period, viable cells convert WST-1 to a water-soluble formazan dye. Quantitating the formazan dye in the microplate is done with an ELISA plate reader. The absorbance directly correlates with the cell number.

[9] = test system: MDA MB-231 cells; assay: Cell viability of MDA MB-231 breast cancer cells in culture (MTT or WST-1, 72 hrs); assay type: cell-based, human; details: MDA MB-231; for Chemo-drug LD50: WST-1, 72 hrs
Method: (§4) MDA MB-231cells (ATCC® Number: HTB-26™) are human mammary gland breast adenocarcinoma derived from metastatic pleural effusion with epithelial morphology. MCF-7 (ATCC® Number: HTB-22™) are human mammary gland breast adenocarcinoma derived from metastatic pleural effusion with epithelial morphology.
as §1, §2, §3

[10] = test system: MCF-7 cells; assay: Cell viability of MCF-7 breast cancer cells in culture (MTT or WST-1, 72 hrs); assay type: cell-based, human; details: MCF-7; for Chemo-drug LD50: WST-1, 72 hrs
Method: as §4, §1, §2, §3

[11] = test system: A 2780 cells; assay: Cell viability of A 2780 ovarian cancer cells in culture (MTT or WST-1, 72 hrs); assay type: cell-based, human; details: A 2780; for Chemo-drug LD50: WST-1, 72 hrs
Method: (§5) A-2780 cells are human ovarian cancer cell line which was established from tumor tissue from an untreated patient with adenocarcinoma. Cells grow as a monolayer and in suspension in spinner cultures.
as §1, §2, §3

[12] = test system: A 2780cis cells; assay: Cell viability of A 2780cis ovarian cancer cells in culture (MTT or WST-1, 72 hrs); assay type: cell-based, human; details: A 2780cis; for Chemo-drug LD50: WST-1, 72 hrs
Method: as §5, §1, §2, §3

[13] = test system: PANC-1 human pancreatic cancer cells implanted in RAG1/Cγ double mutant NOD xenograft mice; assay: PANC-1 pancreatic cancer xenograft in RAG1/Cγ double mutant NOD mice; details: for Liver metastases % Inhibition: vs untreated day 79
Text: An immunodeficient mouse model with a double mutation in the combining recombinase activating gene-1 or -2 (RAG1 or RAG2) and common cytokine receptor γ chain (cγ) were used as xenograft mice. […] Mice deficient in both RAG2 and cγ (RAG2−/−/cγ−/−) were generated by inter-crossing and were maintained in SPF isolators in the Animal Care Facility, Queen's University, Kingston, Ontario K7L3N6, Canada. A colony was established in the animal facility. Mice deficient in both RAG1 and cγ (RAG1^−/−×cγ^−/−) on a non-obese diabetic (NOD) genetic background were obtained from the Jackson Laboratory (Bar Harbor, Me.) and a colony was established in the animal facility. All mice were kept under sterile conditions in micro-isolators or air-filtered cages, and were provided with autoclaved food and water. […] They were used between 6 and 8 weeks of age.
Puromycin-resistance eGFP transduced MiaPaCa-2 or PANC-1 cell clones were grown in 75 cm^2 cell culture flask at 80% confluence. The cells were resuspended into solution using TrypLE Express (Gibco) and washed with sterile saline. The cell suspension was centrifuged for 3 min at 900 rpm, and the cell pellet resuspended in sterile saline at a concentration of 5-10×10^6 cells/mL for 1-2×10^6 cells implantation into the right back flank of the mouse. Tumour measurements were taken twice a week. Tumour volumes were determined by (width square/2)×length.
The RAG1/Cγ double mutant xenograft mouse model was implanted with 2×10^6 PANC-1 cells in 0.2 mL in the right back flank.

[14] = test system: Neu1 sialidase; details: NGF treated live TrkA-expressing cells; cited from earlier work
[15] = molecular target: T3, human Neu3 sialidase (Homo sapiens, UniProt Q9UQ49); details: in the micromolar range; cited from earlier work
T3 sequence (Q9UQ49 1-428): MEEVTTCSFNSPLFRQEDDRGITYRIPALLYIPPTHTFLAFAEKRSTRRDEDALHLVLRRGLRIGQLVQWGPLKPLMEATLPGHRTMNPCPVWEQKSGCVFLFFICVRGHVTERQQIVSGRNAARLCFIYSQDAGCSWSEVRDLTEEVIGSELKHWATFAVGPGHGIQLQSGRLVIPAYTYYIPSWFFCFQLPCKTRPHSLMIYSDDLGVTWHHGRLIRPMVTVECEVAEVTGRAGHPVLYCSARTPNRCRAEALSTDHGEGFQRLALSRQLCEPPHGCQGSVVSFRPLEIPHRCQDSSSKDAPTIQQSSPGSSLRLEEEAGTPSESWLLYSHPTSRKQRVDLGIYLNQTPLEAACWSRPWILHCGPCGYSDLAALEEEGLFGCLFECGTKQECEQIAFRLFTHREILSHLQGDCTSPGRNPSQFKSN

[16] = molecular target: T4, Neu1 sialidase (Homo sapiens, UniProt Q99519); details: 2 mM; lysates from mature dendritic cells; cited from earlier work
T4 construct: using lysates from mature dendritic cells; host or cells: lysates from mature dendritic cells

[17] = test system: Neu3 sialidase; details: 2 mM; lysates from mature dendritic cells; cited from earlier work
[18] = test system: TLR4/MD2; details: HEK293 cells stably transfected with TLR4/MD2; cited from earlier work
[19] = co-treatment oseltamivir phosphate 730 μM
[20] = co-treatment oseltamivir phosphate 1460 μM
[21] = chemo-drug alone, abraxane 0.5 mg/kg day 78, gemcitabine 30 mg/kg day […]
[22] = day 84, Gemcitabine 30 mg/kg alone
[23] = day 93, Gemcitabine 30 mg/kg alone
[24] = day 112, Gemcitabine 30 mg/kg alone
[25] = oseltamivir phosphate 2 mg/kg, alone day 90, with abraxane 0.5 day 78, with gemcitabine 30 day 110
[26] = oseltamivir phosphate 5 mg/kg, alone day 90, with abraxane 0.5 day 90, with gemcitabine 30 day 109

CCC(CC)[C@H](NC(C)=O)[C@@H]1C[C@@H](C(=O)O)C[C@H]1N=C(N)N [BCX-1827]
Inhibition of LPS induced sialidase activity (in words) [1]: limited effect

CC(=O)N[C@H]1[C@H]([C@H](O)[C@H](O)CO)OC(C(=O)O)=C[C@@H]1O [DANA, 2-deoxy-2,3-dehydro-N-acetylneuraminic acid]
Inhibition of LPS induced sialidase activity (in words) [1]: limited effect | Inhibition of Neu1 sialidase (in words) [2]: moderate inhibitor of Neu1 sialidase

COC(=O)[C@H](c1ccccc1Cl)N1CCc2sccc2C1 [clopidogrel]
Effect on oseltamivir phosphate's capacity to inhibit LPS induced sialidase activity [3]: no effect | Inhibition of hydrolysis of oseltamivir phosphate by carboxylesterase [4]: ≤ 90%

Nc1ccn([C@@H]2O[C@H](CO)[C@@H](O)C2(F)F)c(=O)n1 [gemcitabine, Gemcitabine]
Chemo-drug LD50 [5, 19]: 0.78 µM | Chemo-drug LD50 [5, 20]: 0.078 µM | Chemo-drug LD50 ([5]; oseltamivir phosphate 0 μM): 0.78 µM | Chemo-drug sensitivity with oseltamivir phosphate (fold increase) ([5]; oseltamivir phosphate 730 μM): 1 fold increase | Chemo-drug sensitivity with oseltamivir phosphate (fold increase) ([5]; oseltamivir phosphate 1460 μM): 10 fold increase | Chemo-drug LD50 [6, 19]: 1.6 µM | Chemo-drug LD50 [6, 20]: 1.5 µM | Chemo-drug LD50 ([6]; oseltamivir phosphate 0 μM): >26 µM | Chemo-drug sensitivity with oseltamivir phosphate (fold increase) ([6]; oseltamivir phosphate 730 μM): 16 fold increase | Chemo-drug sensitivity with oseltamivir phosphate (fold increase) ([6]; oseltamivir phosphate 1460 μM): 17 fold increase | Chemo-drug LD50 [7, 19]: 0.78 µM | Chemo-drug LD50 [7, 20]: 1 µM | Chemo-drug LD50 ([7]; oseltamivir phosphate 0 μM): 0.78 µM | Chemo-drug sensitivity with oseltamivir phosphate (fold increase) ([7]; oseltamivir phosphate 730 μM): 1 fold increase | Chemo-drug sensitivity with oseltamivir phosphate (fold increase) ([7]; oseltamivir phosphate 1460 μM): 0.78 fold increase | Chemo-drug LD50 [8, 19]: 30 µM | Chemo-drug LD50 ([8]; oseltamivir phosphate 0 μM): 60 µM | Chemo-drug sensitivity with oseltamivir phosphate (fold increase) ([8]; oseltamivir phosphate 730 μM): 2 fold increase | Chemo-drug LD50 [9, 19]: 40 µM | Chemo-drug LD50 ([9]; oseltamivir phosphate 0 μM): 70 µM | Chemo-drug sensitivity with oseltamivir phosphate (fold increase) ([9]; oseltamivir phosphate 730 μM): 2 fold increase | Chemo-drug LD50 [10, 19]: 40 µM | Chemo-drug LD50 ([10]; oseltamivir phosphate 0 μM): 40 µM | Chemo-drug sensitivity with oseltamivir phosphate (fold increase) ([10]; oseltamivir phosphate 730 μM): 1 fold increase | Chemo-drug LD50 [11, 19]: 40 µM | Chemo-drug LD50 ([11]; oseltamivir phosphate 0 μM): 60 µM | Chemo-drug sensitivity with oseltamivir phosphate (fold increase) ([11]; oseltamivir phosphate 730 μM): 1.5 fold increase | Chemo-drug LD50 [12, 19]: 40 µM | Chemo-drug LD50 ([12]; oseltamivir phosphate 0 μM): 60 µM | Chemo-drug sensitivity with oseltamivir phosphate (fold increase) ([12]; oseltamivir phosphate 730 μM): 1.5 fold increase | Liver metastases (ave number of nodules) [13, 21]: 12 | Metastases (size, mm) [13, 21]: 0.3-1.5 mm | Tumour volume ([13]; day 79, chemotherapeutic alone (Abraxane 0.5 mg/kg or Gemcitabine 30 mg/kg i.p. once weekly)): 200 ± 47 (5) mm^3 | % Inhibition To untreated ([13]; day 79, chemotherapeutic alone (Abraxane 0.5 or Gemcitabine 30 mg/kg)): 86% | % Inhibition To untreated ([13]; day 79, chemotherapeutic alone (Abraxane 0.5 or Gemcitabine 30 mg/kg), listed as Gemcitabine): 86% (p < 0.0001) | % Inhibition To untreated [13, 22]: 89% | Tumour volume [13, 22]: 159 ± 52 (5) mm^3 | % Inhibition To untreated ([13]; day 84, Gemcitabine 30 mg/kg alone, listed as Gemcitabine): 89% (p < 0.0001) | % Inhibition To untreated [13, 23]: 69% | Tumour volume [13, 23]: 437 ± 140 (3) mm^3 | % Inhibition To untreated ([13]; day 93, Gemcitabine 30 mg/kg alone, listed as Gemcitabine): 69% (p < 0.0001) | % Inhibition To untreated [13, 24]: 63% | Tumour volume [13, 24]: 507 ± 357(2) mm^3 | % Inhibition To untreated ([13]; day 112, Gemcitabine 30 mg/kg alone, listed as Gemcitabine): 63% | Liver metastases (ave number of nodules) ([13]; oseltamivir phosphate 2 mg/kg, alone day 90, with abraxane 0.5 mg/kg day 78, with gemcitabine 30 mg/kg day 110): 10 | Metastases (size, mm) [13, 25]: 0.5-1.2 mm | Liver metastases % Inhibition [13, 25]: 76% | Liver metastases (ave number of nodules) ([13]; oseltamivir phosphate 5 mg/kg, alone day 90, with abraxane 0.5 mg/kg day 90, with gemcitabine 30 mg/kg day 109): 8 | Metastases (size, mm) [13, 26]: 0.2-1.5 mm | Liver metastases % Inhibition [13, 26]: 81%

CC(=O)N[C@H]1[C@H]([C@H](O)[C@H](O)CO)OC(C(=O)O)=C[C@@H]1N=C(N)N [zanamivir, 4-guanidino-Neu5Ac2en]
Inhibition of LPS induced sialidase activity (in words) [1]: limited effect | Inhibition of Neu1 sialidase activity (in words) [14]: limited inhibitory effect | Inhibition of human Neu3 sialidase (in words) [15]: significantly inhibited | Inhibition of Neu1 sialidase activity (in words) [16]: completely inhibited | Inhibition of Neu3 sialidase activity (in words) [17]: completely inhibited

galectin-1: α-2,3-sialyl specific galectin-1
Inhibition of TLR ligand-induced NFκB responses (in words) [18]: significantly inhibited

From patent US10350188B2, “Use of Neu1 sialidase inhibitors in the treatment of cancer” (priority 2011, dated 2019)
